Laboratory results as given in patent US7235584B2, “Non-psychotropic cannabinoids” (Pharmos Corporation, priority 2000, dated 2007).

Columns and labels:
transient MCAo in rats = experiment: Transient middle cerebral artery occlusion (MCAo), infarct size evaluation; type: in vivo
From the text: The middle cerebral artery is the cerebral blood vessel most susceptible to stroke in humans. In animals, coagulation, permanent ligation or permanent placement of an occluding thread ink the artery produces a permanent focal stroke affecting the MCA territory. Transient ligation or occlusion results in transient focal stroke. Both transient and permanent focal strokes result in varying degrees of edema and infarction in the affected brain regions. The ability of compounds to reduce the volumes of edema and infarction is considered a measure of their potential as anti-stroke treatment.
• a. Male rats (8/treatment group) 320–380 gr. (Harlan Israel). • b. Halothane (Rhone Poulenc France) • c. Pentobarbitone (Pental Veterinary, CTS Israel). • d. Poly-L-Lysine (Sigma, USA). • e. Silk suture material 3-0 and 4-0. • f. Nylon (Polyamid) suture material 3-0. Four cm pieces were cut and positioned in a solution of 1% Poly-L-Lysine for 1 minute and dried in an oven (60 ° C.) for 60 minutes. The tip of each piece was rounded under a flame. • g. Saline (Teva Medical). • h. Blank cremophor ethanol cosolvent (Pharmos). • i. Dexanabinol in cremophor ethanol cosolvent 50 mg/ml. (Both Dexanabinol and its vehicle were diluted in saline prior to drug administration. • j. Analogs PRS-211,092, PRS-211,095, PRS-211,128 PRS-211,132 and PRS-211,220 in cremophor ethanol cosolvent, 50 mg/ml. • k. The analogs were diluted in saline prior to drug administration. Methods Transient MCAo
a. Surgical details of the MCAO method used for testing dexanabinol analogs, are presented in Belayev, et al., (Belayev, Busto, Weizhao, and Ginsberg, Stroke 26:2313–2319, 1995) which is incorporated herein in its entirety by reference.
b. Two hours after the start of MCAo, the animals were reanesthetized with halothane, the neck wound was re-opened and the nylon thread pulled out of the Internal carotid artery (ICA). The skin wound was then closed with 3-0 silk suture material and the animals allowed to recover from the anesthesia.
c. Three sets of animals were tested. In the first test immediately (2+0 hours) before thread removal the animals were injected IV with either analogs PRS 211,095, PRS 211,128, PRS 211,132, or Dexanabinol (PRS 211,007) each at a dosage of 5 mg/kg. One group of animals was treated with 5mi/kg vehicle alone. In another group, the animals subjected to “sham” operation, the suture was passed into the ICA, as described above, but immediately withdrawn. […] Laser Doppler Flow (LDF) determined the success of MCAo—a drop of more then 50% in cerebral blood flow was considered as a sign of successful MCAO. […]
A detailed investigation of neurological performance was carried out on the first, third and the 7th day after the MCAo. […] Animals were scored according to their performance: […]

[1] = system: rat model of closed head injury; experiment: Closed head injury (head trauma) in rats: cerebral edema and Neurological Severity Score; type: in vivo
From the text: Severe head injury is associated with high mortality and severe neurological impairment. Animals subjected to head trauma in a controlled fashion serve as models in which to test drugs of therapeutic potential. Test compounds can be evaluated both for improved clinical outcome and for reduction of edema induced by closed head injury. The ability of compounds to reduce the severity of neurological symptoms and to reduce brain edema is considered a measure of their potency in reducing brain damage.
The cerebroprotective effect of PRS-211 compounds was assessed in a model of head trauma (HT) in rats. […] The clinical status of the rats was evaluated 1, 24 and 48 hours after injury along with measuring the extent of cerebral edema. The neurological deficit, assessed by a set of criteria termed the Neurological Severity Score (NSS), is maximal at 1 hour after the initiation of head trauma. […]
The model was described in detail by Shapira et al., Crit. […] During the recovery period, the clinical status was evaluated by a set of criteria (NSS).
Trauma induced a significant decrease in specific gravity (SG) of brain tissue and increase in water content following head injury. […] Tissue pieces (20 mg each) were placed on top of the column and the SG calculated from the equilibrium position in the column, using a standard curve. […]

cannabimimetic activity = conditions: doses several thousand times higher than the ED50 of HU-210; cited from earlier work

Compound | Behavioral/neurological outcome (transient MCAo in rats; posture and flexion reflex, days 1, 3, 7 after MCAo) | Mortality rate (transient MCAo in rats; transient MCAo, 5 mg/kg IV at 2+0 hours) | reduction of infarct size (transient MCAo in rats; transient MCAo, one week after the ischemic insult) [%] | edema formation and BBB disruption ([1]; given 30 min before, immediately after, or 1 and 2 hours after HT) | edema and clinical outcome 24 hours after HT ([1]; one dose of 5 mg/kg given 1 hour after the impact) | cannabimimetic activity (in words) (cannabimimetic activity)
CCCCCCC(C)(C)c1cc(O)c2c(c1)OC(C)(C)C1CC=C(Cn3ccnc3)CC21.Cl (single isomer, unassigned; (+)) [211,095-000, (+)-(3S ,4S )-6,6-Dimethyl-(1,1-dimethylheptyl)-1-hydroxy-9-(imidazolomethyl)-6a,7,10,10a-tetrahydro-6H-dibenzo[b,d]pyran] | fewer neurological deficits and recovered faster | No mortality | 60 | significantly reduces edema formation and BBB disruption | effectively reduced edema and improved the clinical outcome | –
CCCCCCC(C)(C)c1cc(O)c2c(c1)OC(C)(C)[C@H]1CC=C(CO)CC21 (stereo partly drawn) [211,007-000, 1,1 dimethyl heptyl-(3S,4S)-7-hydroxy-Δ^6-tetrahydrocannabinol] | – | – | – | – | – | inactive as a cannabimimetic
